As a reminder, the IC50 is the concentration that inhibits the measured activity by half. Low values mean higher potency, high ones lower potency.

The values below come from patent US7855290B2, “Pyridine derivatives and pyrimidine derivatives (3)” (Eisai R&D Management Co., Ltd., priority 2005, dated 2010).

The assay deals with T1, HGFR (Homo sapiens, UniProt P08581).
T1 construct: endogenous in cells; host or cells: MKN-45 human gastric cancer cells
T1 sequence (P08581 25-1390): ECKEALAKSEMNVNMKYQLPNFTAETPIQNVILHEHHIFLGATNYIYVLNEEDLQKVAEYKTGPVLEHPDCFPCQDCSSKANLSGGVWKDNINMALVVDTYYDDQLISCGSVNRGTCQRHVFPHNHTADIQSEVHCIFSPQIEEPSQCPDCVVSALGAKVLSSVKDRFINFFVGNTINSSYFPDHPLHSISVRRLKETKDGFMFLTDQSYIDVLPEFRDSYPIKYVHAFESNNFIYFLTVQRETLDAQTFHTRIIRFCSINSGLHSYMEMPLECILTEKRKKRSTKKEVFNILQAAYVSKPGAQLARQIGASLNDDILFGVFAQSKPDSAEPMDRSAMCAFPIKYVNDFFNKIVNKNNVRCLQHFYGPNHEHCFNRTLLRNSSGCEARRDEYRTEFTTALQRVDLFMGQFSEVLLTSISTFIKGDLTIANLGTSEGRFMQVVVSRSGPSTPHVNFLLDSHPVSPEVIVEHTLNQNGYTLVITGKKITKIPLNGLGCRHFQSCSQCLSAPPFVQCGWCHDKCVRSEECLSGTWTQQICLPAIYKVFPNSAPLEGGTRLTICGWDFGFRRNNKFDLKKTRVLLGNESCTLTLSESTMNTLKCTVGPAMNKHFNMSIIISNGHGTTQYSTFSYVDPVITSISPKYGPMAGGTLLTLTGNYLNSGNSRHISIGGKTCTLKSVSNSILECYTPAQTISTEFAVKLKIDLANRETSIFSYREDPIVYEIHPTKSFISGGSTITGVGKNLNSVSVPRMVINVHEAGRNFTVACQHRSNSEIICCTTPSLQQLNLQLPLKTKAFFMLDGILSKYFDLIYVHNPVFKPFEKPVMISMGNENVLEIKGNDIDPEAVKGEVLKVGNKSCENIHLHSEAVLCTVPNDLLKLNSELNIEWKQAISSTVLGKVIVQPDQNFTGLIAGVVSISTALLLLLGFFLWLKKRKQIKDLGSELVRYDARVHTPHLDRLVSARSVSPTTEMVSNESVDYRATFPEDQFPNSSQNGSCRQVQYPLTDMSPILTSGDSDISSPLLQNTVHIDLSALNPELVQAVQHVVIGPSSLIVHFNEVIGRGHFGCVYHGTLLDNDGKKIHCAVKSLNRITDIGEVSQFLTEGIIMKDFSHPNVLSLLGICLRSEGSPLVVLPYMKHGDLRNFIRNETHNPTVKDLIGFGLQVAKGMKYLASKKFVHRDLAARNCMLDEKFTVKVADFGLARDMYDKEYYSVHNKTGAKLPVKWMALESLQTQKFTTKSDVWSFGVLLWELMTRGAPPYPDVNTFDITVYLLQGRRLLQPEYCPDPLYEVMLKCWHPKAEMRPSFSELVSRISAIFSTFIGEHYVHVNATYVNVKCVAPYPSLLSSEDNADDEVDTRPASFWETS
Kind of assay: Inhibitory activity against the HGFR autophosphorylation using ELISA (MKN-45 cells). It is filed as cell-based. To be noted: 1 hr with test substance. The essentials: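 MKN-45 gastric cancer cells, plated overnight in 1% FBS RPMI1640, treated with compound 1 h at 37° C and lysed. Lysate captured on anti-phosphotyrosine (PY20) plates, probed with anti-HGFR then HRP anti-rabbit IgG; TMB absorbance at 450 nm. Activity expressed as % of untreated extract (100%) versus lysis buffer blank (0%).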
With `CN1CCC(N(C)C(=O)Nc2cc(Oc3ccc(NC(=O)C4(C(=O)Nc5ccc(F)cc5)CC4)cc3F)ncn2)CC1` [Example 33, N-(3-Fluoro-4-{[6-({[methyl(1-methylpiperidin-4-yl)amino]carbonyl}amino)pyrimidin-4-yl]oxy}phenyl)-N′-(4-fluorophenyl)cyclopropane-1,1-dicarboxamide], the IC50 is 25 nM.
For the compound `O=C(Nc1cc(Oc2cc(F)c(NC(=O)C3(C(=O)Nc4ccc(F)cc4)CC3)cc2F)ccn1)N1CCC(O)CC1` [Example 105], the IC50 was determined as 8.6 nM.
For `CN(C)C1CCN(C(=O)Nc2cc(Oc3ccc(NC(=O)C4(C(=O)Nc5ccc(F)cc5)CC4)c(F)c3)ccn2)CC1` [Example 18, N-(4-{[2-({[4-(Dimethylamino)piperidin-1-yl]carbonyl}amino)pyridin-4-yl]oxy}-2-fluorophenyl)-N′-(4-fluorophenyl)cyclopropane-1,1-dicarboxamide], the IC50 amounted to 39 nM.
With `CCN(CC)CCCNC(=O)Nc1cc(Oc2ccc(NC(=O)C3(C(=O)Nc4ccc(F)cc4)CC3)cc2C)ccn1` [Example 45, N-[4-({2-[({[3-(Diethylamino)propyl]amino}carbonyl)amino]pyridin-4-yl}oxy)-3-methylphenyl]-N′-(4-fluorophenyl)cyclopropane-1,1-dicarboxamide], it took 440 nM to reach half-maximal inhibition (IC50).
With `O=C(Nc1cc(Oc2ccc(NC(=O)C3(C(=O)Nc4ccc(F)cc4)CC3)cc2)ccn1)N1CCC(N2CCC2)CC1` [Example 13, N-{4-[(2-{[(4-Azetidin-1-ylpiperidin-1-yl)carbonyl]amino}pyridin-4-yl)oxy]phenyl}-N′-(4-fluorophenyl)cyclopropane-1,1-dicarboxamide], the 50% inhibitory concentration (IC50) was found to be 37 nM.
With `CN(C)C1CN(C(=O)Nc2cc(Oc3ccc(NC(=O)C4(C(=O)Nc5ccc(F)cc5)CC4)c(F)c3)ccn2)C1` [Example 76, N-(4-{[2-({[3-(Dimethylamino)azetidin-1-yl]carbonyl}amino)pyridin-4-yl]oxy}-2-fluorophenyl)-N′-(4-fluorophenyl)cyclopropane-1,1-dicarboxamide] the figure was 30 nM; with `CN(C)CCN1CCN(C(=O)Nc2cc(Oc3ccc(NC(=O)C4(C(=O)Nc5ccc(F)cc5)CC4)cc3)ccn2)CC1` [Example 30, N-[4-({2-[({4-[2-(Dimethylamino)ethyl]piperazin-1-yl}carbonyl)amino]pyridin-4-yl}oxy)phenyl]-N′-(4-fluorophenyl)cyclopropane-1,1-dicarboxamide], 12 nM.
`CN(C)C1CCN(C(=O)Nc2cc(Oc3cc(F)c(NC(=O)C4(C(=O)Nc5ccc(F)cc5)CC4)cc3F)ncn2)CC1` [Example 102, N-(4-{[4-({[4-(Dimethylamino)piperidin-1-yl]carbonyl}amino)pyrimidin-6-yl]oxy}-2,5-difluorophenyl)-N′-(4-fluorophenyl)cyclopropane-1,1-dicarboxamide]: half-maximal inhibition (IC50) required 41 nM.
With `CN(C)CC1CCN(C(=O)Nc2cc(Oc3ccc(NC(=O)C4(C(=O)Nc5ccc(F)cc5)CC4)c(F)c3)ccn2)CC1` [Example 8, N-[4-({2-[({4-[(Dimethylamino)methyl]piperidin-1-yl}carbonyl)amino]pyridin-4-yl}oxy)-2-fluorophenyl]-N′-(4-fluorophenyl)cyclopropane-1,1-dicarboxamide], the IC50 worked out at 14 nM.
`CN1CCC(N(C)C(=O)Nc2cc(Oc3ccc(NC(=O)C4(C(=O)Nc5ccc(F)cc5)CC4)cc3)ccn2)CC1` [Example 12] had an IC50 of 40 nM.
On to `CN1CCC(N(C)C(=O)Nc2cc(Oc3cc(F)c(NC(=O)C4(C(=O)Nc5ccc(F)cc5)CC4)cc3F)ncn2)CC1` [Example 100, N-(2,5-Difluoro-4-{[4-({[methyl(1-methylpiperidin-4-yl)amino]carbonyl}amino)pyrimidin-6-yl]oxy}phenyl)-N′-(4-fluorophenyl)cyclopropane-1,1-dicarboxamide], for which 9.4 nM corresponded to half-maximal inhibition (IC50).
